Assay results reported in PMC8761492 (Life Science Alliance, 2022).
Values after ≈ are worked out from the molar mass of the structure shown. Values joined by “and” are separate entries in the source; they are usually repeats but may differ in a detail not shown here. Equal entries are not always repeated. Where two headings read alike, the source gives them in different places. Starred links: 1 amine or outer side, 2 acyl side, 3 side chain; linkers in the order of their positions; H or OH if unused. Positions of bridges follow the written chain, without caps; N, C: chain ends. Non-standard residues stand in square brackets, D forms with d. Residues, ends and D or L forms follow the SMILES beside them. *: point of attachment. X1 = CC[C@H](C)[C@@H](N[*:1])[C@@H](O)CC(=O)O[C@H](C(=O)[C@H](C)C(=O)[*:2])C(C)C; NMeY = CN[C@@H](Cc1ccc(O)cc1)C(=O)O; dNMeL = CN[C@H](CC(C)C)C(=O)O; Pyruvoyl = CC(=O)C(=O)*

Experiments:
SARS-CoV-2 B.1.1.7 = test: microbe, parasite or virus in culture; type: cell-based; settings: 24 h, mean ± SEM
COVID-19 = test: APLICOV-PC: six-point ordinal scale (post hoc); type: in vivo, human
Description: Although not specified in the protocol (so not captured in the CRF), post-hoc analysis was performed to categorize the status of each patient at baseline, on Days 7, 15, 31, and at time of discharge using the following 6-point ordinal scale (Wang et al 2020):
Hospital admission, not requiring supplemental oxygen
Hospital admission, requiring supplemental oxygen
Hospital admission, requiring high-flow nasal cannula or noninvasive mechanical ventilation
Hospital admission, requiring extracorporeal membrane oxygenation or invasive mechanical ventilation
The number and percentage of patients with at least 1-point and at least 2-point improvements from baseline was calculated for Days 7, 15, 31 and date of discharge.

[1] = APLICOV-PC: central analysis of electrocardiograms; settings: 317 ECGs from 44 patients; no value above
SARS-CoV-2 = system: SARS-CoV-2; design: method as in PMID 33495306; settings: SARS-CoV-2 in vitro; cited from earlier work
[2] = cited from earlier work
HCoV-229E = test: Protocol estimate of target concentrations from the HCoV-229E experiment; settings: from IC50 0.555 µg/l assuming a Hill slope of 1
[3] = as above; settings: bovine, cell culture medium with 10% bovine serum
plasma proteins = test: Plasma protein binding by equilibrium dialysis, human plasma; type: in vitro ADME; settings: for % Bound / % Recovery / % Unbound: single replicates
Description: (§1) The binding of plitidepsin to plasma proteins was determined in vitro at three concentrations (100, 250 and 500 ng/ml) in male rat, dog and human plasma ([53]).
(§2) Rat (CD), beagle dog, and human blood was collected at Aptuit Srl from at least three male donors, and plasma prepared by centrifuging blood at 2,000g, 4°C for 10 min. Human plasma was obtained from healthy and fasted male volunteers. Na-heparin was used as the anti-coagulant for all species. All plasma was stored at approximately −20°C and thawed only once, on the day of the experiment.
(§3) Plasma protein binding was assessed using Rapid Equilibrium Dialysis plates pre-loaded with equilibrium dialysis membrane inserts (MWCO ∼8 kD).
(§4) Separation of free compound from protein-bound material was achieved by dialysis of the sample through the membrane under appropriate shaking at 37°C. The suitability of equilibrium dialysis as a method for protein binding determination of plitidepsin was assessed.
(§5) Before experimentation, the time required to reach equilibrium was determined in male rat and human plasma at one concentration (250 ng/ml) and six selected time points (2, 3, 4, 5, 6, and 7 h) at 37°C.
(§6) Plitidepsin stability was assessed in plasma (all species) and PBS at two concentrations (100 and 500 ng/ml for plasma; 0.5 and 50 ng/ml for PBS) by comparing plitidepsin concentration in spiked and preincubated plasma before and after incubation at 37°C for 5 h as determined previously.

[4] = as above; type: in vitro ADME; settings: male, human; for recovery at 100 ng/mL / fraction unbound at 5 h, 100 ng/mL: nominal 100 ng/mL; for recovery at 500 ng/mL / fraction unbound at 5 h, 500 ng/mL: nominal 500 ng/mL
Description: as §1, §2, §3, §4, §5, §6

[5] = Drug-induced cytotoxicity in Vero E6 cells in the absence of virus; type: cell-based; settings: monkey, Vero E6 cells (ATCC CRL-1586), uninfected, Vero E6 cells without virus
[6] = 1-hour D1,8,15 q4wk, ref phase 1 programme
[7] = 1-hour iv D1-5 q3wk, ref APL-A-004-98
[8] = 3-hour D1,15 q4wk, ref phase 1 programme
[9] = 24-hour D1,8,15 q4wk, ref phase 1 programme
[10] = 24-hour D1,15 q4wk, plitidepsin alone, ref phase 1 programme
[11] = plasma, single replicates, read-out: % Bound (converted)
[12] = plasma, single replicates, read-out: % Unbound

## CC[C@H](C)[C@H]1NC(=O)[C@@H](NC(=O)[C@@H](CC(C)C)N(C)C(=O)[C@@H]2CCCN2C(=O)C(C)=O)[C@@H](C)OC(=O)[C@H](Cc2ccc(OC)cc2)N(C)C(=O)[C@@H]2CCCN2C(=O)[C@H](CC(C)C)NC(=O)[C@@H](C)C(=O)[C@H](C(C)C)OC(=O)C[C@@H]1O [Plitidepsin] (Pyruvoyl-P[dNMeL]T[X1]LP[NMeY](Me); ester 3-C)
SARS-CoV-2 B.1.1.7; Severe acute respiratory syndrome coronavirus 2, Caco-2, pretreated 2 h
  IC50: 6.12 nM
SARS-CoV-2 B.1.1.7; Severe acute respiratory syndrome coronavirus 2, Calu-3, pretreated 2 h
  IC50: 5.87 nM
COVID-19; Day 4, 1.5 mg (N=14)
  2 Hospital admission, not requiring supplemental oxygen: 28.6%
  3 Hospital admission, requiring supplemental oxygen: 57.1%
  4 Hospital admission, requiring high-flow nasal cannula or non-invasive mechanical ventilation: 14.3%
COVID-19; Day 4, 2 mg (N=15)
  2 Hospital admission, not requiring supplemental oxygen: 40%
  3 Hospital admission, requiring supplemental oxygen: 60%
COVID-19; Day 4, 2.5 mg (N=15)
  2 Hospital admission, not requiring supplemental oxygen: 33.3%
  3 Hospital admission, requiring supplemental oxygen: 66.7%
COVID-19; Day 4, Total (N=44)
  2 Hospital admission, not requiring supplemental oxygen: 34.1%
  3 Hospital admission, requiring supplemental oxygen: 61.4%
  4 Hospital admission, requiring high-flow nasal cannula or non-invasive mechanical ventilation: 4.5%
COVID-19; Day 7, 1.5 mg (N=14)
  1 Discharged (Alive): 21.4%
  2 Hospital admission, not requiring supplemental oxygen: 21.4%
  3 Hospital admission, requiring supplemental oxygen: 35.7%
  4 Hospital admission, requiring high-flow nasal cannula or non-invasive mechanical ventilation: 21.4%
COVID-19; Day 7, 2 mg (N=15)
  1 Discharged (Alive): 13.3%
  2 Hospital admission, not requiring supplemental oxygen: 20%
  3 Hospital admission, requiring supplemental oxygen: 66.7%
COVID-19; Day 7, 2.5 mg (N=15)
  1 Discharged (Alive): 33.3%
  2 Hospital admission, not requiring supplemental oxygen: 20%
  3 Hospital admission, requiring supplemental oxygen: 26.7%
  4 Hospital admission, requiring high-flow nasal cannula or non-invasive mechanical ventilation: 20%
COVID-19; Day 7, Total (N=44)
  1 Discharged (Alive): 22.7%
  2 Hospital admission, not requiring supplemental oxygen: 20.5%
  3 Hospital admission, requiring supplemental oxygen: 43.2%
  4 Hospital admission, requiring high-flow nasal cannula or non-invasive mechanical ventilation: 13.6%
COVID-19; Day 15, 1.5 mg (N=14)
  1 Discharged (Alive): 78.6%
  3 Hospital admission, requiring supplemental oxygen: 7.1%
  4 Hospital admission, requiring high-flow nasal cannula or non-invasive mechanical ventilation: 7.1%
  5 Hospital admission, requiring extracorporeal membrane oxygenation or invasive mechanical ventilation: 7.1%
COVID-19; Day 15, 2 mg (N=15)
  1 Discharged (Alive): 93.3%
  5 Hospital admission, requiring extracorporeal membrane oxygenation or invasive mechanical ventilation: 6.7%
COVID-19; Day 15, 2.5 mg (N=15)
  1 Discharged (Alive): 73.3%
  3 Hospital admission, requiring supplemental oxygen: 6.7%
  4 Hospital admission, requiring high-flow nasal cannula or non-invasive mechanical ventilation: 20%
COVID-19; Day 15, Total (N=44)
  1 Discharged (Alive): 81.8%
  3 Hospital admission, requiring supplemental oxygen: 4.5%
  4 Hospital admission, requiring high-flow nasal cannula or non-invasive mechanical ventilation: 9.1%
  5 Hospital admission, requiring extracorporeal membrane oxygenation or invasive mechanical ventilation: 4.5%
COVID-19; Day 31, 1.5 mg (N=14)
  1 Discharged (Alive): 85.7%
  2 Hospital admission, not requiring supplemental oxygen: 7.1%
  6 Death: 7.1%
COVID-19; Day 31, 2 mg (N=15)
  1 Discharged (Alive): 93.3%
  4 Hospital admission, requiring high-flow nasal cannula or non-invasive mechanical ventilation: 6.7%
COVID-19; Day 31, 2.5 mg (N=15)
  1 Discharged (Alive): 80%
  2 Hospital admission, not requiring supplemental oxygen: 6.7%
  5 Hospital admission, requiring extracorporeal membrane oxygenation or invasive mechanical ventilation: 6.7%
  6 Death: 6.7%
COVID-19; Day 31, Total (N=44)
  1 Discharged (Alive): 86.4%
  2 Hospital admission, not requiring supplemental oxygen: 4.5%
  4 Hospital admission, requiring high-flow nasal cannula or non-invasive mechanical ventilation: 2.3%
  5 Hospital admission, requiring extracorporeal membrane oxygenation or invasive mechanical ventilation: 2.3%
  6 Death: 4.5%
[1]
  QTcF: ≤ 480 ms
  δ QTcF: ≤ 60 ms
SARS-CoV-2
  IC90: 0.88 nM
[2]; [6]
  MTD: 3.60 mg/m2
  RD: 3.2 mg/m2
[2]; [7]
  MTD: 1.35 mg/m2
  RD: 1.2 mg/m2
[2]; [8]
  MTD: 6 mg/m2
  RD: 5 mg/m2
[2]; [9]
  MTD: 4.50 mg/m2
  RD: 3.75 mg/m2
[2]; [10]
  MTD: 6 mg/m2
  RD: 5 mg/m2
[2]; cancer patients, daily over 5 consecutive days
  recommended dose for subsequent phase 2 studies: 1.2 mg/m^2/day
HCoV-229E
  IC90 estimated: 4.995 ng/mL (≈ 4.5 nM)
[3]
  fraction unbound: > 0.96
Plasma proteins; male, human, plasma, nominal 100 ng/mL, Mean ± SD, read-out: % Bound (converted)
  fraction unbound at 100 ng/mL: 0.017
Plasma proteins; nominal 100 ng/mL
  % Bound: 98.3% and 98.2%
  % Recovery: 84.7% and 77.7%
  % Unbound: 1.7% and 1.8%
Plasma proteins; nominal 250 ng/mL
  % Bound: 98.5% and 98%
  % Recovery: 56.7% and 87.3% and 87%
  % Unbound: 1.5% and 2%
Plasma proteins; nominal 500 ng/mL
  % Bound: 98%
  % Recovery: 78.8%
  % Unbound: 2%
[4]; independent of drug concentration
  fraction unbound: 0.02
[4]; plasma, Mean ± SD
  recovery at 100 ng/mL: 84.3 ± 6.4%
[4]; plasma, Mean ± SD, read-out: % Unbound
  fraction unbound at 5 h, 100 ng/mL: 0.017 ± 0.002
[4]; plasma, single replicates
  recovery at 100 ng/mL: 90.4%
  recovery at 500 ng/mL: 82%
[4]; [11]
  fraction unbound at 5 h, 100 ng/mL: 0.014
  fraction unbound at 5 h, 500 ng/mL: 0.019
[4]; [12]
  fraction unbound at 5 h, 100 ng/mL: 0.014
  fraction unbound at 5 h, 500 ng/mL: 0.019
[4]; plasma, nominal 250 ng/mL, Mean ± SD
  recovery at 250 ng/mL: 77 ± 17.6%
[4]; plasma, nominal 250 ng/mL, Mean ± SD, read-out: % Bound (converted)
  fraction unbound at 5 h, 250 ng/mL: 0.022
[4]; plasma, nominal 250 ng/mL, Mean ± SD, read-out: % Unbound
  fraction unbound at 5 h, 250 ng/mL: 0.022 ± 0.008
[4]; plasma, nominal 250 ng/mL, single replicates, read-out: % Bound (converted)
  fraction unbound at 5 h, 250 ng/mL: 0.03
[4]; plasma, nominal 250 ng/mL, single replicates, read-out: % Unbound
  fraction unbound at 5 h, 250 ng/mL: 0.03
[4]; plasma, mean, n=2
  recovery at 500 ng/mL: 80.4%
[4]; plasma, mean, n=2, read-out: % Bound (converted)
  fraction unbound at 5 h, 500 ng/mL: 0.019
[4]; plasma, mean, n=2, read-out: % Unbound
  fraction unbound at 5 h, 500 ng/mL: 0.019
[5]
  CC50 at 3 d: 2900 nM
